ChEMBL document CHEMBL6096703 (J Med Chem, 2025)
Active and inactive are the calls of the source. No cut-off for these calls is given here.

What was measured:
[1] = molecular target: Poly [ADP-ribose] polymerase 1 (Homo sapiens, UniProt P09874); assay: Inhibition of PARP1 (unknown origin) at 1 nM preincubated with compound for 10 mins followed by DNA and NAD+ addition and measured after 60 mins by chemiluminescence based envision reader analysis relative to control; conditions: time 70.0 min
[2] = Acute toxicity in Kunming mouse assessed as change in cellular morphology of spleen at 100 mg/kg administered once a day via gavage for 14 days by H and E staining based analysis; assay type: organism-based; conditions: in vivo, po, 336 h, time 14 day
[3] = Apparent volume of distribution in male Balb/c mouse at 1 mg/kg, po measured upto 96 hrs by LC-MS/MS analysis; assay type: ADME, organism-based; conditions: in vivo
[4] = Apparent volume of distribution in male Balb/c mouse at 1 mg/kg, iv measured upto 96 hrs by LC-MS/MS analysis; assay type: ADME, organism-based; conditions: male, Balb/c, in vivo, read-out: Vz
[5] = Drug concentration in blood of male Balb/c mouse at 10 mg/kg, po measured at 1 hr postdose; assay type: ADME, organism-based; conditions: read-out: Ct
[6] = Acute toxicity in Kunming mouse assessed as change in cellular morphology of heart at 100 mg/kg administered once a day via gavage for 14 days by H and E staining based analysis; assay type: organism-based; conditions: in vivo, po, 336 h, time 14 day
[7] = Sub-acute toxicity in Kunming mouse assessed as change ALB2 level at 100 to 300 mg/kg administered via gavage for 14 days; assay type: organism-based; conditions: in vivo, po, 336 h, dose 100-300 mg/kg, time 14 day
[8] = Sub-acute toxicity in Kunming mouse assessed as change ALB2 level at 30 to 100 mg/kg administered via gavage once a day for 14 days; assay type: organism-based; conditions: in vivo, po, 336 h, dose 30-100 mg/kg, time 14 day
[9] = Sub-acute toxicity in Kunming mouse assessed as change CREA2 level at 100 to 300 mg/kg administered via gavage for 14 days; assay type: organism-based; conditions: in vivo, po, 336 h, dose 100-300 mg/kg, time 14 day
MDA-MB-436 [10] = assay: Antitumor activity against human MDA-MB-436 cells xenografted in female NOD/SCID mouse assessed as tumor regression rate at 1 mg/kg, po administered once every other day for 28 days relative to control; assay type: functional; conditions: time 28.0 day
[11] = Acute toxicity in Kunming mouse assessed as change in cellular morphology of lung at 100 mg/kg administered once a day via gavage for 14 days by H and E staining based analysis; assay type: organism-based; conditions: in vivo, po, 336 h, time 14 day
[12] = Tmax in male Balb/c mouse at 1 mg/kg, po measured upto 96 hrs by LC-MS/MS analysis; assay type: ADME, organism-based; conditions: in vivo
[13] = Sub-acute toxicity in Kunming mouse assessed as change ALTL level at 100 to 300 mg/kg administered via gavage for 14 days; assay type: organism-based; conditions: in vivo, po, 336 h, dose 100-300 mg/kg, time 14 day
[14] = Acute toxicity in Kunming mouse assessed as change in lung structure at 300 mg/kg administered via gavage for 14 days by H and E staining based analysis; assay type: organism-based; conditions: in vivo, po, 336 h, time 14 day
[15] = Sub-acute toxicity in Kunming mouse assessed as change ALTL level at 30 to 100 mg/kg administered via gavage once a day for 14 days; assay type: organism-based; conditions: in vivo, po, 336 h, dose 30-100 mg/kg, time 14 day
[16] = AUC(0 to t) in male Balb/c mouse at 1 mg/kg, po measured upto 96 hrs by LC-MS/MS analysis; assay type: ADME, organism-based; conditions: male, Balb/c, in vivo
[17] = Cmax in male Balb/c mouse at 1 mg/kg, po measured upto 96 hrs by LC-MS/MS analysis; assay type: ADME, organism-based; conditions: in vivo
MDA-MB-436 [18] = assay: Antiproliferative activity against human MDA-MB-436 cells assessed as reduction in cell viability incubated for 7 days by CCK-8 assay; assay type: functional, cell-based; conditions: MDA-MB-436, 168 h
[19] = Sub-acute toxicity in Kunming mouse assessed as change LDH2 level at 30 to 100 mg/kg administered via gavage once a day for 14 days; assay type: organism-based; conditions: in vivo, po, 336 h, dose 30-100 mg/kg, time 14 day
[20] = Drug concentration in brain of male Balb/c mouse at 10 mg/kg, po measured at 1 hr postdose; assay type: ADME, organism-based; conditions: read-out: Ct
[21] = Sub-acute toxicity in Kunming mouse assessed as change ASTL level at 30 to 100 mg/kg administered via gavage once a day for 14 days; assay type: organism-based; conditions: in vivo, po, 336 h, dose 30-100 mg/kg, time 14 day
MDA-MB-436 [22] = assay: Antitumor activity against luciferase tagged human MDA-MB-436 cells xenografted in female NOD-SCID mouse assessed as median survival time at 3 mg/kg, po administered once a day for 34 days; assay type: functional; conditions: time 34 day
[23] = Sub-acute toxicity in Kunming mouse assessed as change UREAL level at 100 to 300 mg/kg administered via gavage for 14 days; assay type: organism-based; conditions: in vivo, po, 336 h, dose 100-300 mg/kg, time 14 day
[24] = Sub-acute toxicity in Kunming mouse assessed as change LDH2 level at 100 to 300 mg/kg administered via gavage for 14 days; assay type: organism-based; conditions: in vivo, po, 336 h, dose 100-300 mg/kg, time 14 day
[25] = Acute toxicity in Kunming mouse assessed as change in liver structure at 300 mg/kg administered via gavage for 14 days by H and E staining based analysis; assay type: organism-based; conditions: in vivo, po, 336 h, time 14 day
[26] = Sub-acute toxicity in Kunming mouse assessed as change CK level at 100 to 300 mg/kg administered via gavage for 14 days; assay type: organism-based; conditions: in vivo, po, 336 h, dose 100-300 mg/kg, time 14 day
[27] = molecular target: Poly [ADP-ribose] polymerase 2 (Homo sapiens, UniProt Q9UGN5); assay: Inhibition of PARP2 (unknown origin) at 1 uM preincubated with compound for 10 mins followed by DNA and NAD+ addition and measured after 60 mins by chemiluminescence based envision reader analysis relative to control; conditions: time 70.0 min
Chain of Poly [ADP-ribose] polymerase 2 (Q9UGN5 whole entry): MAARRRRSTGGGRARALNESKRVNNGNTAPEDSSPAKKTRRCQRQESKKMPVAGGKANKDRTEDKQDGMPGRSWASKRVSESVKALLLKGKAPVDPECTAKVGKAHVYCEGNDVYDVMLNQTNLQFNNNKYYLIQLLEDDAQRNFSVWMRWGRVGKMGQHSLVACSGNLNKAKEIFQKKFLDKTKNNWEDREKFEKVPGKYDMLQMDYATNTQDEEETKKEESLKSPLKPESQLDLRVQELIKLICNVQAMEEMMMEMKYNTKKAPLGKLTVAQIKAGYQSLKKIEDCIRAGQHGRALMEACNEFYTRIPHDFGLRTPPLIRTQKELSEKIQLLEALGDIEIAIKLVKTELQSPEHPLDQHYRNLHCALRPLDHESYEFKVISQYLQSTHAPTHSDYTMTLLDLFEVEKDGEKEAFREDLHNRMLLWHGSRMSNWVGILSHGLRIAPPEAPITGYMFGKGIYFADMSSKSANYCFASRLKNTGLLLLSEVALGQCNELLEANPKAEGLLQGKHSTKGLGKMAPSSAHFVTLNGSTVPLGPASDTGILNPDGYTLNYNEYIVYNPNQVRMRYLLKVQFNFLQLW

[28] = Half life in male Balb/c mouse at 1 mg/kg, po measured upto 96 hrs by LC-MS/MS analysis; assay type: ADME, organism-based; conditions: male, Balb/c, in vivo
[29] = Acute toxicity in Kunming mouse assessed as change in cellular morphology of liver at 100 mg/kg administered once a day via gavage for 14 days by H and E staining based analysis; assay type: organism-based; conditions: in vivo, po, 336 h, time 14 day
[30] = Cmax in male Balb/c mouse at 1 mg/kg, iv measured upto 96 hrs by LC-MS/MS analysis; assay type: ADME, organism-based; conditions: in vivo
[31] = Acute toxicity in Kunming mouse assessed as change in heart structure at 300 mg/kg administered via gavage for 14 days by H and E staining based analysis; assay type: organism-based; conditions: in vivo, po, 336 h, time 14 day
[32] = Acute toxicity in Kunming mouse assessed as change in spleen structure at 300 mg/kg administered via gavage for 14 days by H and E staining based analysis; assay type: organism-based; conditions: in vivo, po, 336 h, time 14 day
[33] = Drug concentration in blood of male Balb/c mouse at 10 mg/kg, po measured at 6 hr postdose; assay type: ADME, organism-based; conditions: read-out: Ct
[34] = Sub-acute toxicity in Kunming mouse assessed as change CK level at 30 to 100 mg/kg administered via gavage once a day for 14 days; assay type: organism-based; conditions: in vivo, po, 336 h, dose 30-100 mg/kg, time 14 day
[35] = Sub-acute toxicity in Kunming mouse assessed as change ASTL level at 100 to 300 mg/kg administered via gavage for 14 days; assay type: organism-based; conditions: in vivo, po, 336 h, dose 100-300 mg/kg, time 14 day
[36] = Acute toxicity in Kunming mouse assessed as change in cellular morphology of kidney at 100 mg/kg administered once a day via gavage for 14 days by H and E staining based analysis; assay type: organism-based; conditions: in vivo, po, 336 h, time 14 day
[37] = Oral bioavailability in male Balb/c mouse at 1 mg/kg measured upto 96 hrs by LC-MS/MS analysis; assay type: ADME, organism-based; conditions: in vivo
[38] = Clearance in male Balb/c mouse at 1 mg/kg, iv measured upto 96 hrs by LC-MS/MS analysis; assay type: ADME, organism-based; conditions: male, Balb/c, in vivo
[39] = Drug concentration in brain of male Balb/c mouse at 10 mg/kg, po measured at 6 hr postdose; assay type: ADME, organism-based; conditions: read-out: Ct
[40] = AUC(0 to t) in male Balb/c mouse at 1 mg/kg, iv measured upto 96 hrs by LC-MS/MS analysis; assay type: ADME, organism-based; conditions: male, Balb/c, in vivo
[41] = Clearance in male Balb/c mouse at 1 mg/kg, po measured upto 96 hrs by LC-MS/MS analysis; assay type: ADME, organism-based; conditions: male, Balb/c, in vivo
[42] = Tmax in male Balb/c mouse at 1 mg/kg, iv measured upto 96 hrs by LC-MS/MS analysis; assay type: ADME, organism-based; conditions: in vivo
[43] = Half life in male Balb/c mouse at 1 mg/kg, iv measured upto 96 hrs by LC-MS/MS analysis; assay type: ADME, organism-based; conditions: male, Balb/c, in vivo
[44] = Sub-acute toxicity in Kunming mouse assessed as change CREA2 level at 30 to 100 mg/kg administered via gavage once a day for 14 days; assay type: organism-based; conditions: in vivo, po, 336 h, dose 30-100 mg/kg, time 14 day
[45] = Acute toxicity in Kunming mouse assessed as change in kidney structure at 300 mg/kg administered via gavage for 14 days by H and E staining based analysis; assay type: organism-based; conditions: in vivo, po, 336 h, time 14 day
[46] = Sub-acute toxicity in Kunming mouse assessed as change UREAL level at 30 to 100 mg/kg administered via gavage once a day for 14 days; assay type: organism-based; conditions: in vivo, po, 336 h, dose 30-100 mg/kg, time 14 day

Chain of Poly [ADP-ribose] polymerase 1 (P09874 whole entry): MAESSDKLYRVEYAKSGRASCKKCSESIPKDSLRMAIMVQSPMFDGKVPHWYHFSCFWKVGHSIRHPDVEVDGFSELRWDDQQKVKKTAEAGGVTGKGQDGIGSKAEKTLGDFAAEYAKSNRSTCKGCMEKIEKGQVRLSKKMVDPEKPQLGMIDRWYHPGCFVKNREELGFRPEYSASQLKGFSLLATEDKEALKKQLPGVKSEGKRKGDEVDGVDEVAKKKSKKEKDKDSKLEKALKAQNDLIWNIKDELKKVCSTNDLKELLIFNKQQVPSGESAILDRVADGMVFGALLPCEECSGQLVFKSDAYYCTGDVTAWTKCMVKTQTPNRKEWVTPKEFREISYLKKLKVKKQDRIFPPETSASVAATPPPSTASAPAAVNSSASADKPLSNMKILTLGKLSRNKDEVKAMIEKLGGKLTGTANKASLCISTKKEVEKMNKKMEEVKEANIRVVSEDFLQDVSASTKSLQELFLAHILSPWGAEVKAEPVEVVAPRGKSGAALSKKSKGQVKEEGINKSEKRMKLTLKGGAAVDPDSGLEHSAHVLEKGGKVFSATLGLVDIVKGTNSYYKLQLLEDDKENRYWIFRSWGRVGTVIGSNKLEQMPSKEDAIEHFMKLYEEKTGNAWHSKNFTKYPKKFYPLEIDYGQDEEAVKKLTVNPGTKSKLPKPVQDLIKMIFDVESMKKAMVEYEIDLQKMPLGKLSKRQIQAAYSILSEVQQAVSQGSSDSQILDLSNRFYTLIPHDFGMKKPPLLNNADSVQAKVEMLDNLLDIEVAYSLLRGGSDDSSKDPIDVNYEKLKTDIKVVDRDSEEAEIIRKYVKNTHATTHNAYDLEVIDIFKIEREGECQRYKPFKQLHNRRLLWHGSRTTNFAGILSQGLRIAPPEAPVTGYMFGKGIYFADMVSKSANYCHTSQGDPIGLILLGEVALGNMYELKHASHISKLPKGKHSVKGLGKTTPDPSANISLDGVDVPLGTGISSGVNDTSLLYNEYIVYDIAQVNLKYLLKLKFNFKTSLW

CNC(=O)c1ccc(N2CCN(Cc3ccc4nc(C)c(=O)[nH]c4c3F)CC2)c(F)n1 [AZD-9574]
inhibition [1]: 63.7% | Activity [2]: Non-toxic | Vz [3]: 3.03 L/kg | Vd [4]: 3.64 L/kg | concentration at 1 h [5]: 3780 ng/mL | Activity [6]: Non-toxic | Activity [7]: Non-toxic | Activity [8]: Non-toxic | Activity [9]: Non-toxic | Activity (MDA-MB-436 [10]): inactive | Activity [11]: Non-toxic | Tmax [12]: 0.33 h | Activity [13]: Non-toxic | Activity [14]: Non-toxic | Activity [15]: Non-toxic | AUC(0-t) at 96 h [16]: 4180 ng·h/mL | Cmax [17]: 594 ng/mL | IC50 (MDA-MB-436 [18]): 6.7 nM | Activity [19]: Non-toxic | concentration at 1 h [20]: 412 ng/g | Activity [21]: Non-toxic | Survival (MDA-MB-436 [22]): >65 days | Activity [23]: Non-toxic | Activity [24]: Non-toxic | Activity [25]: Non-toxic | Activity [26]: Non-toxic | inhibition [27]: 38.1% | half-life [28]: 8.81 h | Activity [29]: Non-toxic | Cmax [30]: 941 ng/mL | Activity [31]: Non-toxic | Activity [32]: Non-toxic | concentration at 6 h [33]: 186 ng/mL | Activity [34]: Non-toxic | Activity [35]: Non-toxic | Activity [36]: Non-toxic | bioavailability [37]: 85.5% | clearance [38]: 3.17 mL/min/kg | concentration at 6 h [39]: 48 ng/g | AUC(0-t) at 96 h [40]: 4890 ng·h/mL | CL/F [41]: 4 mL/min/kg | Tmax [42]: 4.8 min | half-life [43]: 14.7 h | Activity [44]: Non-toxic | Activity [45]: Non-toxic | Activity [46]: Non-toxic
